Test results from patent US12324927B2, “Methods and systems for photodynamic therapy calculations” (THE TRUSTEES OF THE UNIVERSITY OF PENNSYLVANIA, priority 2018, dated 2025).

Assays:
[1] = as printed in b218; cited from earlier work
[2] = tested on: radiation induced fibrosarcoma (RIF) tumors; assay: BPD-mediated vascular PDT of RIF tumors: explicit dosimetry and tumor regrowth (cure index); format: in vivo, mice
Description: RIF cells were cultured and 30 μl were injected at 1×10^7 cells/ml intradermally over the right shoulders of 6 to 8 weeks old female C3H mice (NCI-Frederick, Frederick, Maryland), as described previously^10-12. Animals were under the care of the University of Pennsylvania Laboratory Animal Resources. All studies were approved by the University of Pennsylvania Institutional Animal Care and Use Committee. Tumors were treated at a size of ˜3 to 5 mm in diameter. Fur within the region of tumor inoculation was clipped prior to injection of cells, and the treatment area was depilated with Nair (Church & Dwight Co., Inc., Ewing, New Jersey) at least 24 h before measurements. Mice were provided a chlorophyll-free (alfalfa-free) rodent diet (Harlan Laboratories Inc., Indianapolis, Indiana) starting at least 10 days prior to treatment to eliminate the fluorescence signal from chlorophyll-breakdown products, which have a similar emission range to the BPD fluorescence spectra used to determine the concentration of BPD in the tumor. During the delivery of PDT, mice were kept under anesthesia on a heat pad at 38° C.
PDT was delivered using an optical fiber with a microlens attachment coupled to a diode laser. A 690 nm laser (B&W Tek Inc., Newark, Delaware) was used for PDT after a 15 min drug-light interval. The in-air fluence rate (ϕair) is defined as the calculated irradiance determined by the laser power divided by the treatment area (1 cm diameter spot size). The in-air fluence was calculated by multiplying the in-air fluence rate by the treatment time. […]
The in vivo tissue oxygen partial pressure pO2 was measured during PDT treatment using a phosphorescence-based […] (OxyLite Pro, Oxford Optronix, Oxford, United Kingdom). […] The ROS concentration ([ROS]) was calculated by multiplying the measured pO2 with the […] solubility in tissue, which is 1.295 μM/mmHg.^5 Measured [ROS]0 and [ROS](t) were used to calculate reacted oxygen species using the macroscopic singlet oxygen model.^14,15 […]
Tumor volumes were measured daily after PDT. […]

## C=Cc1c(C)c2cc3nc(cc4[nH]c(cc5nc(cc1[nH]2)C(C)=C5CCC(=O)O)c(CCC(=O)OC)c4C)[C@@]1(C)C3=CC=C(C(=O)OC)[C@H]1C(=O)OC [BPD, benzoporphyrin derivative monoacid ring A]
[1]
  β: 11.9 µM
[2]; in tumor, FIG. 18
  change of BPD concentration before vs after PDT treatment: not significant changes
[2]; mouse, in vivo
  [ROS]rx threshold dose smaller than value for conventional BPD-mediated PDT using DLI of 3 hrs: about 4.3 times
[2]; vascular BPD-PDT, DLI 15 min
  threshold dose for [ROS]rx: 0.23 mM
